ChEMBL document CHEMBL1201862, “PubChem BioAssay data set” (2004)
Where “and” joins values, the source holds several entries; their conditions need not be identical. Identical values can stand only once.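 A five-concentration, 48-hour dose response in 96-well plates underlies each endpoint, interpolated linearly between surrounding concentrations. At the GI50, growth is halved.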 Calls of active or inactive are those of the source. No stated cut-off is given here; in the data, active = GI50 up to about 1.1 µM and inactive = higher.

Legend:
Test in all cases: growth of human tumour cells (NCI), 48 h
DU-145 = tested on: DU-145
MDA-MB-435 = tested on: MDA-MB-435
OVCAR-3 = tested on: OVCAR-3
T47D = tested on: T47D
SF-539 = tested on: SF-539
PC-3 = tested on: PC-3
UACC-62 = tested on: UACC-62
MDA-N = tested on: MDA-N
HT-29 = tested on: HT-29
MDA-MB-231 = tested on: MDA-MB-231
KM12 = tested on: KM12
SN12C = tested on: SN12C
OVCAR-8 = tested on: OVCAR-8
K562 = tested on: K562
MOLT-4 = tested on: MOLT-4
Hs-578T = tested on: Hs-578T
SK-OV-3 = tested on: SK-OV-3
HCC 2998 = tested on: HCC 2998
CAKI-1 = tested on: CAKI-1

Row | SMILES | GI50 (DU-145) | GI50 (MDA-MB-435) | GI50 (OVCAR-3) | GI50 (T47D) | GI50 (SF-539) | GI50 (PC-3) | GI50 (UACC-62) | GI50 (MDA-N) | GI50 (HT-29) | GI50 (MDA-MB-231) | GI50 (KM12) | GI50 (SN12C) | GI50 (OVCAR-8) | GI50 (K562) | GI50 (MOLT-4) | GI50 (Hs-578T) | GI50 (SK-OV-3) | GI50 (HCC 2998) | GI50 (CAKI-1)
1 | O=C(CCc1ccc(O)c(O)c1)NCCc1cc(O)c(O)c(O)c1 | 64.7 µM (inactive) | 17.6 µM (inactive) | 19.8 µM (inactive) | 70.8 µM (inactive) | > 100 µM (inactive) | > 100 µM (inactive) | 90.8 µM (inactive) | 16.9 µM (inactive) | 17.9 µM (inactive) | 14.5 µM (inactive) | 25.4 µM (inactive) | 17.9 µM (inactive) | 20.4 µM (inactive) | 18.3 µM (inactive) | 21.6 µM (inactive) | 78.3 µM (inactive) | > 100 µM (inactive) | > 100 µM (inactive) | 
2 | NCCNC(=S)S | > 100 µM (inactive) | > 100 µM (inactive) | 52.7 µM (inactive) | > 100 µM (inactive) |  | > 100 µM (inactive) | > 100 µM (inactive) | > 100 µM (inactive) | 85.9 µM (inactive) | > 100 µM (inactive) | > 100 µM (inactive) | 68.9 µM (inactive) | 57.5 µM (inactive) | 36.6 µM (inactive) | 34.9 µM (inactive) | 7.31 µM (inactive) | > 100 µM (inactive) | > 100 µM (inactive) | > 100 µM (inactive)
3 | CCOC(=O)c1c(N2CCCC2)[nH]c(=O)c(C(c2ccc(Cl)c([N+](=O)[O-])c2)c2c(O)c(C(=O)OCC)c(N3CCCC3)[nH]c2=O)c1O | 60.8 µM (inactive) | 29.4 µM (inactive) | 29.9 µM (inactive) | 28.1 µM (inactive) | 19.2 µM (inactive) | 28.1 µM (inactive) | 26.8 µM (inactive) | 24.5 µM (inactive) |  | 22 µM (inactive) | > 100 µM (inactive) | 36.2 µM (inactive) | 15.5 µM (inactive) | 63.2 µM (inactive) | 46.6 µM (inactive) | 6.55 µM (inactive) | 85.5 µM (inactive) | > 100 µM (inactive) | 24.4 µM (inactive)
4 | CCCCC[C@H](O)[C@H](C)C=C1SCCCS1 | > 100 µM (inactive) | > 100 µM (inactive) | > 100 µM (inactive) | 43.2 µM (inactive) |  | > 100 µM (inactive) | > 100 µM (inactive) | > 100 µM (inactive) | > 100 µM (inactive) | > 100 µM (inactive) | > 100 µM (inactive) | > 100 µM (inactive) | > 100 µM (inactive) | > 100 µM (inactive) | > 100 µM (inactive) | > 100 µM (inactive) | > 100 µM (inactive) | > 100 µM (inactive) | > 100 µM (inactive)
5 | Cc1nn(C(=O)Cc2ccccc2)c2c1C(c1ccc(/C=C/c3ccccc3)cc1)SC(=N)N2 (configuration not stated) | > 100 µM (inactive) | > 100 µM (inactive) |  | > 100 µM (inactive) | > 100 µM (inactive) | > 100 µM (inactive) | > 100 µM (inactive) | > 100 µM (inactive) | > 100 µM (inactive) | > 100 µM (inactive) | > 100 µM (inactive) | > 100 µM (inactive) | > 100 µM (inactive) | > 100 µM (inactive) | > 100 µM (inactive) | > 100 µM (inactive) | > 100 µM (inactive) | > 100 µM (inactive) | > 100 µM (inactive)
6 | C#CCOCn1ccc(=O)[nH]c1=O | > 100 µM (inactive) | > 100 µM (inactive) |  | > 100 µM (inactive) | > 100 µM (inactive) | > 100 µM (inactive) | > 100 µM (inactive) | > 100 µM (inactive) | > 100 µM (inactive) | > 100 µM (inactive) | > 100 µM (inactive) | > 100 µM (inactive) | > 100 µM (inactive) | > 100 µM (inactive) | > 100 µM (inactive) | > 100 µM (inactive) | > 100 µM (inactive) | > 100 µM (inactive) | > 100 µM (inactive)
7 | COc1ccc2[nH]cc([C@@H]3C4CCC(C4)[C@H]3NCc3cccc(CN[C@H]4C5CCC(C5)[C@@H]4c4c[nH]c5ccc(OC)cc45)c3)c2c1 | 1.67 µM (inactive) and 1.68 µM (inactive) | 520 nM (active) and 733 nM (active) | 1.65 µM (inactive) and 1.54 µM (inactive) | 1.72 µM (inactive) and 1.99 µM (inactive) | 1 µM (active) and 1.73 µM (inactive) | 1.29 µM (inactive) and 1.46 µM (inactive) | 1.8 µM (inactive) and 1.75 µM (inactive) | 1.15 µM (inactive) and 933 nM (active) | 230 nM (active) and 218 nM (active) | 1.44 µM (inactive) and 1.2 µM (inactive) | 463 nM (active) and 643 nM (active) | 1.1 µM (active) and 1.51 µM (inactive) | 891 nM (active) and 998 nM (active) | 228 nM (active) and 178 nM (active) | 577 nM (active) and 467 nM (active) | 1.71 µM (inactive) and 1.5 µM (inactive) |  | 339 nM (active) and 256 nM (active) | 1.6 µM (inactive) and 1.79 µM (inactive)
8 | Cc1ccccc1NC(=S)N/N=C(/c1ccccc1)c1ccccn1 | 0.838 µM (active) | 0.757 µM (active) | < 0.01 µM (active) | < 0.01 µM (active) | 0.384 µM (active) | < 0.01 µM (active) | 0.171 µM (active) | 0.7 µM (active) | < 0.0182 µM (active) | < 0.01 µM (active) | 0.0405 µM (active) | 0.067 µM (active) | 0.0279 µM (active) | < 0.0282 µM (active) | < 0.0295 µM (active) | 13.2 µM (inactive) | 0.0128 µM (active) | 3.22 µM (inactive) | 0.0743 µM (active)
9 | CCC1(CC)C(=O)N(C(=O)c2cc(OC)c(OC)c(OC)c2)N(C(=O)c2cc(OC)c(OC)c(OC)c2)C1=O | > 50 µM (inactive) | > 50 µM (inactive) | > 50 µM (inactive) | > 50 µM (inactive) | > 50 µM (inactive) | > 50 µM (inactive) | > 50 µM (inactive) | > 50 µM (inactive) | > 50 µM (inactive) | > 50 µM (inactive) | > 50 µM (inactive) | 21.8 µM (inactive) | > 50 µM (inactive) | > 50 µM (inactive) |  | > 50 µM (inactive) | > 50 µM (inactive) | > 50 µM (inactive) | > 50 µM (inactive)
10 | Cc1cc2c(c(C)c1O)C(C)(C)CN2C(=O)C(C)(C)C | > 100 µM (inactive) | 56 µM (inactive) | 14.4 µM (inactive) | 56.5 µM (inactive) | > 100 µM (inactive) | 46.3 µM (inactive) | > 100 µM (inactive) | > 100 µM (inactive) | 57 µM (inactive) | 86.9 µM (inactive) | > 100 µM (inactive) | > 100 µM (inactive) | > 100 µM (inactive) | 41.5 µM (inactive) | 59.4 µM (inactive) | > 100 µM (inactive) | > 100 µM (inactive) | > 100 µM (inactive) | 
11 | CCCCCC#CCOC(=O)C(=[N+]=[N-])P(=O)(c1ccccc1)c1ccccc1 | > 10 µM (inactive) | > 10 µM (inactive) | > 10 µM (inactive) | > 10 µM (inactive) | > 10 µM (inactive) | > 10 µM (inactive) | > 10 µM (inactive) | > 10 µM (inactive) | > 10 µM (inactive) | > 10 µM (inactive) | > 10 µM (inactive) | > 10 µM (inactive) | > 10 µM (inactive) | > 10 µM (inactive) | > 10 µM (inactive) | > 10 µM (inactive) | > 10 µM (inactive) | > 10 µM (inactive) | 
12 | CC(C)C(Sc1nc(N)nc2nc[nH]c12)C(=O)O (configuration not stated) | > 100 µM (inactive) | > 100 µM (inactive) | > 100 µM (inactive) | > 100 µM (inactive) |  | > 100 µM (inactive) | > 100 µM (inactive) | > 100 µM (inactive) | > 100 µM (inactive) | > 100 µM (inactive) | > 100 µM (inactive) | > 100 µM (inactive) | > 100 µM (inactive) | > 100 µM (inactive) |  | > 100 µM (inactive) | > 100 µM (inactive) | > 100 µM (inactive) | > 100 µM (inactive)
13 | COc1ccc(-c2nnc3n(Cc4ccccc4)c4ccccc4n3c2=O)cc1 | 59.4 µM (inactive) | 4.76 µM (inactive) |  | 45.6 µM (inactive) | 13.2 µM (inactive) | 5.92 µM (inactive) |  | > 100 µM (inactive) | > 100 µM (inactive) | 26.1 µM (inactive) | > 100 µM (inactive) | 55 µM (inactive) | 30.9 µM (inactive) |  | > 100 µM (inactive) | 22.1 µM (inactive) |  | > 100 µM (inactive) | 13.9 µM (inactive)
14 | Clc1ccc(OCc2nnc(CCCCCCCCc3nnc(COc4ccc(Cl)cc4Cl)n3Nc3ccccc3)n2Nc2ccccc2)c(Cl)c1 | 18.6 µM (inactive) | 5.97 µM (inactive) | 12 µM (inactive) | 6.53 µM (inactive) | 11.4 µM (inactive) | 3.07 µM (inactive) | 1.47 µM (inactive) | 9.93 µM (inactive) | 13.8 µM (inactive) | 8.41 µM (inactive) | 10.7 µM (inactive) | 18.4 µM (inactive) | 17.4 µM (inactive) |  | 22.7 µM (inactive) | 15.8 µM (inactive) | 11.5 µM (inactive) | 7.21 µM (inactive) | 8.73 µM (inactive)
15 | COc1cccc(-c2cc(O)c3c(C)ccnc3n2)c1 | 0.0471 µM (active) | < 0.01 µM (active) | 0.0186 µM (active) | 49 µM (inactive) | 0.0272 µM (active) | 0.0223 µM (active) | 0.0267 µM (active) | < 0.01 µM (active) | 0.0233 µM (active) | 0.279 µM (active) | 0.0257 µM (active) | 0.0655 µM (active) | 0.0646 µM (active) | < 0.0113 µM (active) | 0.0407 µM (active) | 0.0222 µM (active) | 0.0365 µM (active) | 0.0352 µM (active) | 
